Results: patent US11147272B2, “Pyridone compounds and agricultural and horticultural fungicides comprising the same as active ingredients” (MITSUI CHEMICALS AGRO, INC., priority 2017, dated 2021)

Legend:
Puccinia recondita = test: Test Example E: Brown rust on wheat; format: in vivo; settings: Brown rust on wheat; class of control value
[1] = test system: Colletotrichum orbiculare; test: Test Example H: Anthracnose on cucumber; settings: Anthracnose on cucumber (Sagami Hanjiro); 250 ppm spray, 2.5 ml/pot; assessed 6 to 10 days after inoculation
Phytophthora infestans = test: whole plant or invertebrate; format: in vivo; settings: Late blight on tomato; class of control value
[2] = test system: Blumeria graminis f. sp. hordei; test: Test Example D: Powdery mildew on barley; settings: Powdery mildew on barley; class of control value
Alternaia brassicicola = test: Test Example C: Alternaria sooty spot on cabbage; format: in vivo; settings: Alternaria sooty spot on cabbage; class of control value
Excerpt: Seeds of a test plant (cabbage variety: Shikidori) were planted and cultivated until the cotyledons extended.
<Control Value> Control value=100{1−(n/3)}

Plasmopara viticola = test: Test Example G: Downy mildew on vine; settings: Downy mildew on vine (Neomuscat); 250 ppm spray, 2.5 ml/pot; assessed 7 to 10 days after inoculation
Magnaporthe grisea = test: whole plant or invertebrate; format: in vivo; settings: Blast on rice; class of control value
Botrytis cinerea = test: Test Example B: Gray mold on tomato; settings: Gray mold on tomato; class of control value

SMILES | Test E control value class (Puccinia recondita) | Test H control value class [1] | Test F control value class (Phytophthora infestans) | Test D control value class [2] | Test C control value class (Alternaia brassicicola) | Test G control value class (Plasmopara viticola) | Test A control value class (Magnaporthe grisea) | Test B control value class (Botrytis cinerea)
CCn1c(-c2c(F)cccc2OC)c(CC(C)C)cc(Cl)c1=O [compound 97] | H (more than 50% control value) | H (more than 50% control value) | L (50% or less control value) | H (more than 50% control value) | H (more than 50% control value) | L (50% or less control value) | H (more than 50% control value) | H (more than 50% control value)
CCn1c(-c2ccc(F)cc2Cl)c(CC(C)C)cc(Br)c1=O [compound 100] | H (more than 50% control value) | H (more than 50% control value) | L (50% or less control value) | H (more than 50% control value) | H (more than 50% control value) | H (more than 50% control value) | H (more than 50% control value) | H (more than 50% control value)
CCn1c(-c2c(O)cccc2F)c(CC(C)C)cc(Cl)c1=O [compound 101] | H (more than 50% control value) | L (50% or less control value) | H (more than 50% control value) | L (50% or less control value) | L (50% or less control value) | H (more than 50% control value) | L (50% or less control value) | H (more than 50% control value)
C#CCOc1cccc(F)c1-c1c(CC(C)C)cc(Cl)c(=O)n1CC [compound 102] | H (more than 50% control value) | H (more than 50% control value) | L (50% or less control value) | H (more than 50% control value) | H (more than 50% control value) | H (more than 50% control value) | H (more than 50% control value) | H (more than 50% control value)
CCn1c(-c2c(F)cccc2OCOC)c(CC(C)C)cc(Cl)c1=O [compound 103] | H (more than 50% control value) | H (more than 50% control value) | L (50% or less control value) | H (more than 50% control value) | H (more than 50% control value) | H (more than 50% control value) | H (more than 50% control value) | H (more than 50% control value)
C=CCOc1cccc(F)c1-c1c(CC(C)C)cc(Cl)c(=O)n1CC [compound 104] | L (50% or less control value) | H (more than 50% control value) | L (50% or less control value) | H (more than 50% control value) | L (50% or less control value) | H (more than 50% control value) | H (more than 50% control value) | H (more than 50% control value)
CCn1c(-c2c(F)cccc2OCSC)c(CC(C)C)cc(Cl)c1=O [compound 105] | L (50% or less control value) | H (more than 50% control value) | L (50% or less control value) | L (50% or less control value) | H (more than 50% control value) | H (more than 50% control value) | H (more than 50% control value) | H (more than 50% control value)
CCn1c(-c2c(F)cc(F)cc2F)c(C(C)(C)OC)cc(Cl)c1=O [compound 109] | H (more than 50% control value) | H (more than 50% control value) | L (50% or less control value) | H (more than 50% control value) | H (more than 50% control value) | L (50% or less control value) | H (more than 50% control value) | H (more than 50% control value)
CCn1c(-c2ccc(OC)cc2F)c(CC(C)C)ccc1=O [compound 111] | H (more than 50% control value) | H (more than 50% control value) | L (50% or less control value) | H (more than 50% control value) | H (more than 50% control value) | H (more than 50% control value) | H (more than 50% control value) | H (more than 50% control value)
CCn1c(-c2c(F)cc(F)cc2F)c(CNOC)cc(Cl)c1=O [compound 112] | H (more than 50% control value) | H (more than 50% control value) | L (50% or less control value) | H (more than 50% control value) | H (more than 50% control value) | L (50% or less control value) | L (50% or less control value) | H (more than 50% control value)
CCn1c(-c2c(F)cc(OC)cc2F)c(C(C)(C)OC)cc(Cl)c1=O [compound 113] | H (more than 50% control value) | H (more than 50% control value) | L (50% or less control value) | L (50% or less control value) | H (more than 50% control value) | L (50% or less control value) | H (more than 50% control value) | H (more than 50% control value)
CCn1c(-c2c(F)cc(OC)cc2F)c(CNOC)cc(Cl)c1=O [compound 114] | H (more than 50% control value) | H (more than 50% control value) | L (50% or less control value) | H (more than 50% control value) | H (more than 50% control value) | L (50% or less control value) | L (50% or less control value) | H (more than 50% control value)
CCn1c(-c2ccc(OC)cc2F)c(CC(C)C)cc(Cl)c1=O [compound 115] | H (more than 50% control value) | H (more than 50% control value) | L (50% or less control value) | H (more than 50% control value) | H (more than 50% control value) | L (50% or less control value) | H (more than 50% control value) | H (more than 50% control value)
CCn1c(-c2ccc(OC)cc2F)c(CC(C)C)cc(Br)c1=O [compound 116] | H (more than 50% control value) | H (more than 50% control value) | L (50% or less control value) | H (more than 50% control value) | H (more than 50% control value) | H (more than 50% control value) | H (more than 50% control value) | H (more than 50% control value)
CCn1c(-c2ccc(F)cc2F)c(CC(C)C)ccc1=O [compound 117] | H (more than 50% control value) | H (more than 50% control value) | L (50% or less control value) | H (more than 50% control value) | H (more than 50% control value) | L (50% or less control value) | H (more than 50% control value) | H (more than 50% control value)
CCn1c(-c2ccc(O)cc2F)c(CC(C)C)cc(Cl)c1=O [compound 118] | H (more than 50% control value) | L (50% or less control value) | L (50% or less control value) | L (50% or less control value) | H (more than 50% control value) | L (50% or less control value) | L (50% or less control value) | H (more than 50% control value)
